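Method: 48-hour compound exposure of cells in 96-well plates, five concentrations, linear interpolation of endpoints. Abbreviation: GI50, concentration required for 50% inhibition of growth.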 Activity calls are given as the source filed them. No stated cut-off is given here; in the data, active = GI50 up to about 1.1 µM and inactive = higher.
Experiments:
Test in all cases: inhibition of tumour cell growth, NCI panel, 48 h
MCF7 = system: MCF7
HT-29 = system: HT-29
A549 = system: A549
SN12C = system: SN12C
MDA-N = system: MDA-N
OVCAR-4 = system: OVCAR-4
PC-3 = system: PC-3
T47D = system: T47D
CCRF-CEM = system: CCRF-CEM
HCT-116 = system: HCT-116
SNB-19 = system: SNB-19
SK-MEL-2 = system: SK-MEL-2
KM12 = system: KM12
SF-295 = system: SF-295
LOX IMVI = system: LOX IMVI
MDA-MB-435 = system: MDA-MB-435
U-251 = system: U-251
UACC-257 = system: UACC-257
Malme-3M = system: Malme-3M
HOP-92 = system: HOP-92

Measured: GI50

O=c1c2ccccc2[nH]c2c(Cl)cc(Cl)c(NC3CCCCC3)c12
inactive: MCF7 18.7 µM | HT-29 16.3 µM | A549 29.9 µM | SN12C 24.4 µM | MDA-N 33.3 µM | OVCAR-4 41.2 µM | PC-3 22.8 µM | T47D 31.1 µM | CCRF-CEM > 10 µM | HCT-116 38.5 µM | SNB-19 13.2 µM | SK-MEL-2 16.8 µM | KM12 14.8 µM | SF-295 24.2 µM | LOX IMVI 36.5 µM | MDA-MB-435 16.9 µM | U-251 16.7 µM | UACC-257 23.6 µM

CCCCNC(=S)Nc1nc(C(=O)NNC(=S)NCc2ccccc2)cs1
inactive: MCF7 12.3 µM | HT-29 37.2 µM | A549 52.4 µM | SN12C 31 µM | MDA-N 39.9 µM | Malme-3M 50.5 µM | OVCAR-4 35.3 µM | PC-3 62.1 µM | T47D 13.2 µM | CCRF-CEM > 10 µM | HCT-116 32.9 µM | SK-MEL-2 46.9 µM | KM12 49.1 µM | SF-295 37.5 µM | LOX IMVI 18.7 µM | MDA-MB-435 35.8 µM | U-251 34.5 µM | UACC-257 20.2 µM

COC(=O)C1CC2CCC1(O[Si](C(C)C)(C(C)C)C(C)C)C(O)C2 (stereo not drawn)
inactive: MCF7 14.9 µM | HT-29 16.6 µM | A549 16.8 µM | SN12C 17.9 µM | MDA-N 22 µM | Malme-3M 54.2 µM | OVCAR-4 28.6 µM | PC-3 20.7 µM | T47D 25.8 µM | CCRF-CEM 24.3 µM | HCT-116 18.2 µM | SNB-19 19.1 µM | SK-MEL-2 15.1 µM | KM12 17.6 µM | SF-295 20 µM | LOX IMVI 14.4 µM | MDA-MB-435 16.2 µM | U-251 16.5 µM

Cn1c2ccccc2c(=O)c2cccc(C(=O)NC(CS)C(=O)O)c21 (stereo not drawn)
inactive: MCF7 40.9 µM | HT-29 > 100 µM | A549 > 100 µM | SN12C > 100 µM | MDA-N > 100 µM | Malme-3M > 100 µM | OVCAR-4 > 100 µM | PC-3 > 100 µM | T47D > 100 µM | HCT-116 68.9 µM | SNB-19 > 100 µM | SK-MEL-2 > 100 µM | KM12 > 100 µM | SF-295 > 100 µM | LOX IMVI 53.6 µM | MDA-MB-435 > 100 µM | U-251 > 100 µM | UACC-257 > 100 µM

COc1cccc(/C(CC(O)(C(F)(F)F)C(F)(F)F)=N\N(C)C)c1
inactive: HT-29 > 100 µM | A549 > 100 µM | SN12C > 100 µM | MDA-N > 100 µM | Malme-3M > 100 µM | OVCAR-4 > 100 µM | PC-3 > 100 µM | T47D > 100 µM | CCRF-CEM > 100 µM | HOP-92 > 100 µM | HCT-116 > 100 µM | SNB-19 > 100 µM | SK-MEL-2 > 100 µM | KM12 > 100 µM | SF-295 > 100 µM | LOX IMVI > 100 µM | MDA-MB-435 > 100 µM | U-251 > 100 µM

Cc1ccc(S(=O)(=O)N2CCCC2C(=O)O[C@H]2CC[C@H]3CC=C[C@H]32)cc1 (stereo partly drawn)
inactive: MCF7 26.4 µM | HT-29 40.3 µM | A549 19.4 µM | SN12C 27.8 µM | MDA-N > 69.8 µM | Malme-3M 47.1 µM | OVCAR-4 > 55.8 µM | PC-3 25 µM | T47D 38.3 µM | CCRF-CEM 13.8 µM | HCT-116 19.1 µM | SNB-19 76.9 µM | SK-MEL-2 > 10 µM | KM12 > 100 µM | SF-295 23.7 µM | LOX IMVI 20.7 µM | MDA-MB-435 80.2 µM | U-251 45.4 µM | UACC-257 23.8 µM

Nc1ccc(S(=O)(=O)Nc2cnc3ccccc3n2)cc1 [SULFAQUINOXALINE]
inactive: HT-29 > 100 µM | A549 > 100 µM | SN12C > 100 µM | MDA-N > 100 µM | Malme-3M > 96.6 µM | OVCAR-4 > 100 µM | PC-3 > 100 µM | T47D > 100 µM | CCRF-CEM > 100 µM | HOP-92 > 100 µM | HCT-116 > 100 µM | SNB-19 > 100 µM | SK-MEL-2 > 52.1 µM | KM12 > 100 µM | SF-295 > 100 µM | LOX IMVI > 100 µM | MDA-MB-435 > 100 µM | U-251 > 100 µM | UACC-257 > 100 µM

— ChEMBL document CHEMBL1201862, “PubChem BioAssay data set” (2004)
